# Target: T1, G-protein coupled receptor 55 (Homo sapiens, UniProt Q9Y2T6)
# Assay: Agonist activity at human GPR55 expressed in CHO cells assessed as induction of LPI-induced beta-arrestin recruitment by beta-galactosidase enzyme fragment complementation method relative to LPI
# Assay type: cell-based
# Parameters: concentration or dose not given beside the values
# Conditions: not given
# T1 sequence (Q9Y2T6 whole entry, the tested form may be a part): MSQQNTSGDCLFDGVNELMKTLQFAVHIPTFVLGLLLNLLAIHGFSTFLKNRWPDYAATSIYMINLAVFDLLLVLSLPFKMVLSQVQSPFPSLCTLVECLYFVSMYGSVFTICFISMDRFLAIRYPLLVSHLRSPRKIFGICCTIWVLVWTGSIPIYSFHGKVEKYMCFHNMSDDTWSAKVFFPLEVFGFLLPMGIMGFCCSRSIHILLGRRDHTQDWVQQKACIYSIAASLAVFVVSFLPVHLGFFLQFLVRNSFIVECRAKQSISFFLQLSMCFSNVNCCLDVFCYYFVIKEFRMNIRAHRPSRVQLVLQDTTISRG
row,Compound,Activity [%]
1,O=C1/C(=C/c2ccc(Br)cc2)N=C2SCCCN12,26
2,O=C1N=C2SCCCN2C1(c1ccccc1)c1ccccc1,53
3,COc1ccc(/C=C2\N=C3SCCCN3C2=O)c(OC)c1,0
4,O=C1/C(=C/c2cccc([N+](=O)[O-])c2)N=C2SCCCN12,21
5,O=C1/C(=C/c2ccccc2)N=C2SCCCN12,32

# Target: T2, N-arachidonyl glycine receptor (Homo sapiens) (UniProt Q14330)
# T2 sequence (whole entry): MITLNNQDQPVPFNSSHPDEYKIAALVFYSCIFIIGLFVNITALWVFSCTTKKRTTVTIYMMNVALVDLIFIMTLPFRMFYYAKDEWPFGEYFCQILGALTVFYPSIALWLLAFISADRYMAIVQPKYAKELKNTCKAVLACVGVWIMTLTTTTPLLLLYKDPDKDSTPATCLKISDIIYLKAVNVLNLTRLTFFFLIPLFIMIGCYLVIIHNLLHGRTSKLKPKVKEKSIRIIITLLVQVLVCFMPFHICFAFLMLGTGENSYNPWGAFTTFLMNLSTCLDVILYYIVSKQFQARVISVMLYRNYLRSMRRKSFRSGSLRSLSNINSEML
# Assay: Agonist activity at human GPR18 expressed in CHO cells assessed as induction of beta-arrestin recruitment by beta-galactosidase enzyme fragment complementation method relative to delta9-THC
# Assay type: cell-based
# Parameters: concentration or dose not given beside the values
# Conditions: not given
row,Compound,Activity [%]
1,O=C1/C(=C/c2ccc(Br)cc2)N=C2SCCCN12,0
2,O=C1N=C2SCCCN2C1(c1ccccc1)c1ccccc1,11
3,COc1ccc(/C=C2\N=C3SCCCN3C2=O)c(OC)c1,0
4,O=C1/C(=C/c2cccc([N+](=O)[O-])c2)N=C2SCCCN12,2
5,O=C1/C(=C/c2ccccc2)N=C2SCCCN12,7

# Target: T3, G-protein coupled receptor 35 (Homo sapiens, UniProt Q9HC97)
# T3 sequence (Q9HC97 whole entry, the tested form may be a part): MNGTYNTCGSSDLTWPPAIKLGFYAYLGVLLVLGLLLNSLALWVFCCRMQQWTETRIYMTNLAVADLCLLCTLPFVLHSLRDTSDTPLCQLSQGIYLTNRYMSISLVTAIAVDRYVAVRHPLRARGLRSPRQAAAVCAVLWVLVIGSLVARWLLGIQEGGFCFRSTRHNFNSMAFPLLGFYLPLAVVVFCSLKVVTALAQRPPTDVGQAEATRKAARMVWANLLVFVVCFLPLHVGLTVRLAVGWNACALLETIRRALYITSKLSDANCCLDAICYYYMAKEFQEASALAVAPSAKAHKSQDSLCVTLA
# Assay: Antagonist activity at human GPR35 assessed as reduction of zaprinast-induced beta-arrestin recruitment by beta-galactosidase enzyme fragment complementation method relative to untreated control
# Parameters: concentration or dose not given beside the values
# Conditions: concentration not given here
row,Compound,inhibition [%]
1,COc1ccc(/C=C2\N=C3SCCCN3C2=O)c(OC)c1,20
2,O=C1/C(=C/c2ccccc2)N=C2SCCCN12,12

# Target: T3, G-protein coupled receptor 35
# Assay: Antagonist activity at human GPR35 assessed as reduction of zaprinast-induced beta-arrestin recruitment by beta-galactosidase enzyme fragment complementation method
# Conditions: not given
row,Compound,IC50 [µM]
1,COc1ccc(/C=C2\N=C3SCCCN3C2=O)c(OC)c1,> 10
2,O=C1/C(=C/c2ccccc2)N=C2SCCCN12,> 10

# Target: T3, G-protein coupled receptor 35
# Assay: Agonist activity at human GPR35 assessed as induction of beta-arrestin recruitment by beta-galactosidase enzyme fragment complementation method relative to zaprinast
# Parameters: concentration or dose not given beside the values
# Conditions: not given
row,Compound,Activity [%]
1,COc1ccc(/C=C2\N=C3SCCCN3C2=O)c(OC)c1,-7
2,O=C1/C(=C/c2ccccc2)N=C2SCCCN12,-5

# Target: T3, G-protein coupled receptor 35
# Assay: Agonist activity at human GPR35 assessed as induction of beta-arrestin recruitment by beta-galactosidase enzyme fragment complementation method
# Conditions: not given
row,Compound,EC50 [µM]
1,COc1ccc(/C=C2\N=C3SCCCN3C2=O)c(OC)c1,> 10
2,O=C1/C(=C/c2ccccc2)N=C2SCCCN12,> 10

# Target: Cannabinoid receptor 1 (Rattus norvegicus) (UniProt P20272)
# Sequence (P20272 whole entry): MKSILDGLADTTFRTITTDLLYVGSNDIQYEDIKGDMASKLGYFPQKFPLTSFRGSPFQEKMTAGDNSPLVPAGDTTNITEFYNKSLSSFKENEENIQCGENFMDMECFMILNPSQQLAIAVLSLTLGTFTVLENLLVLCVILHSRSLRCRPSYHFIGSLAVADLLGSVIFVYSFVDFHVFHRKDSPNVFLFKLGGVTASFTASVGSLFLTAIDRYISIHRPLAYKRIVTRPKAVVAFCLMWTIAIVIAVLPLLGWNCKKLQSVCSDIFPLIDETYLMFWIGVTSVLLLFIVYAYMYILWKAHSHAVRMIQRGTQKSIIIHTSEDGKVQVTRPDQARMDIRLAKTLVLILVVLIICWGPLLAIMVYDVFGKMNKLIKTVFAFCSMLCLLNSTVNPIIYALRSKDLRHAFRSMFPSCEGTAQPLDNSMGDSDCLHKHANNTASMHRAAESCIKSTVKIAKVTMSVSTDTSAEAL
# Assay: Displacement of [3H]CP55,940 from CB1 receptor in rat brain cortical membranes at 10 uM
# Assay type: cell membranes
# Conditions: not given
row,Compound,inhibition [%]
1,O=C1/C(=C/c2ccc(Br)cc2)N=C2SCCCN12,21
2,O=C1N=C2SCCCN2C1(c1ccccc1)c1ccccc1,4
3,COc1ccc(/C=C2\N=C3SCCCN3C2=O)c(OC)c1,12
4,O=C1/C(=C/c2cccc([N+](=O)[O-])c2)N=C2SCCCN12,8
5,O=C1/C(=C/c2ccccc2)N=C2SCCCN12,1

# Target: Cannabinoid receptor 1 (Rattus norvegicus, UniProt P20272)
# Sequence (P20272 whole entry): as above
# Assay: Displacement of [3H]CP55,940 from CB1 receptor in rat brain cortical membranes
# Assay type: cell membranes
# Conditions: not given
row,Compound,Ki [µM]
1,O=C1/C(=C/c2ccc(Br)cc2)N=C2SCCCN12,> 10
2,O=C1N=C2SCCCN2C1(c1ccccc1)c1ccccc1,> 10
3,COc1ccc(/C=C2\N=C3SCCCN3C2=O)c(OC)c1,> 10
4,O=C1/C(=C/c2cccc([N+](=O)[O-])c2)N=C2SCCCN12,> 10
5,O=C1/C(=C/c2ccccc2)N=C2SCCCN12,> 10

# Target: T4, Cannabinoid receptor 2 (Homo sapiens, UniProt P34972)
# T4 sequence (P34972 whole entry): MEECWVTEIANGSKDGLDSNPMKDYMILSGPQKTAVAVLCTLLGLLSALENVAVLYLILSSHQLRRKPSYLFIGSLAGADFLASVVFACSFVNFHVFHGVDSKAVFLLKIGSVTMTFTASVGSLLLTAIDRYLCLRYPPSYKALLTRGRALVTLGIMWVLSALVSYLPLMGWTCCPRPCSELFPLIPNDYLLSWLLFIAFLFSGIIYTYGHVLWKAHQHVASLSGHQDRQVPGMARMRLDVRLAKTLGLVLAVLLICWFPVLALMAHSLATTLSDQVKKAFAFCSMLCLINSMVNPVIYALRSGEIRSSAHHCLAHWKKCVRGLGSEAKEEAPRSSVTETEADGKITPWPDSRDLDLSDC
# Assay: Displacement of [3H]CP55,940 from human recombinant CB2 receptor expressed in HEK293 cells at 10 uM
# Assay type: cell-based
# Conditions: not given
row,Compound,inhibition [%]
1,O=C1/C(=C/c2ccc(Br)cc2)N=C2SCCCN12,8
2,O=C1N=C2SCCCN2C1(c1ccccc1)c1ccccc1,9
3,O=C1/C(=C/c2cccc([N+](=O)[O-])c2)N=C2SCCCN12,10
4,O=C1/C(=C/c2ccccc2)N=C2SCCCN12,18

# Target: T4, Cannabinoid receptor 2
# Assay: Displacement of [3H]CP55,940 from human recombinant CB2 receptor expressed in HEK293 cells
# Assay type: cell-based
# Conditions: not given
row,Compound,Ki [µM]
1,O=C1/C(=C/c2ccc(Br)cc2)N=C2SCCCN12,> 10
2,O=C1N=C2SCCCN2C1(c1ccccc1)c1ccccc1,> 10
3,COc1ccc(/C=C2\N=C3SCCCN3C2=O)c(OC)c1,2.57
4,O=C1/C(=C/c2cccc([N+](=O)[O-])c2)N=C2SCCCN12,> 10
5,O=C1/C(=C/c2ccccc2)N=C2SCCCN12,> 10

# Target: T5, Cannabinoid receptor 1 (Homo sapiens, UniProt P21554)
# T5 sequence (P21554 whole entry): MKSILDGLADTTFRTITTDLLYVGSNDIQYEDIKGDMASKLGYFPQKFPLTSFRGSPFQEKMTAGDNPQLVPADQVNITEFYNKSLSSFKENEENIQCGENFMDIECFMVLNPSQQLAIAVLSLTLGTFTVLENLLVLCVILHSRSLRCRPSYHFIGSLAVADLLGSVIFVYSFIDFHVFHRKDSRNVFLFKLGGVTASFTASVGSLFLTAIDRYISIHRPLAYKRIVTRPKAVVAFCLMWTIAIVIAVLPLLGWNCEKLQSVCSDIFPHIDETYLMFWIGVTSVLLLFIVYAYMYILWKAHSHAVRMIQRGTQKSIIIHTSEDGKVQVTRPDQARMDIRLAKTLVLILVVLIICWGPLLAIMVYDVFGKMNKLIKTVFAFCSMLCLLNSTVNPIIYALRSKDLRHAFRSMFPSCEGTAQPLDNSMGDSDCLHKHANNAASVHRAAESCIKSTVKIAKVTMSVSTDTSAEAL
# Assay: Displacement of [3H]CP55,940 from human recombinant CB1 receptor expressed in CHO-K1 cells at 10 uM
# Assay type: cell-based
# Conditions: not given
row,Compound,inhibition [%]
1,O=C1/C(=C/c2ccc(Br)cc2)N=C2SCCCN12,29
2,O=C1N=C2SCCCN2C1(c1ccccc1)c1ccccc1,13
3,COc1ccc(/C=C2\N=C3SCCCN3C2=O)c(OC)c1,42
4,O=C1/C(=C/c2cccc([N+](=O)[O-])c2)N=C2SCCCN12,19
5,O=C1/C(=C/c2ccccc2)N=C2SCCCN12,40

# Target: T5, Cannabinoid receptor 1
# Assay: Displacement of [3H]CP55,940 from human recombinant CB1 receptor expressed in CHO-K1 cells
# Assay type: cell-based
# Conditions: not given
row,Compound,Ki [µM]
1,O=C1/C(=C/c2ccc(Br)cc2)N=C2SCCCN12,> 10
2,O=C1N=C2SCCCN2C1(c1ccccc1)c1ccccc1,> 10
3,COc1ccc(/C=C2\N=C3SCCCN3C2=O)c(OC)c1,≥ 10
4,O=C1/C(=C/c2cccc([N+](=O)[O-])c2)N=C2SCCCN12,> 10
5,O=C1/C(=C/c2ccccc2)N=C2SCCCN12,> 10

# Target: T1, G-protein coupled receptor 55
# Assay: Antagonist activity against human GPR55 expressed in CHO cells assessed as reduction in LPI-induced beta-arrestin recruitment at 10 uM by beta-galactosidase enzyme fragment complementation method
# Assay type: cell-based
# Conditions: not given
row,Compound,inhibition [%]
1,O=C1/C(=C/c2ccc(Br)cc2)N=C2SCCCN12,16
2,O=C1N=C2SCCCN2C1(c1ccccc1)c1ccccc1,2
3,O=C1/C(=C/c2cccc([N+](=O)[O-])c2)N=C2SCCCN12,20
4,O=C1/C(=C/c2ccccc2)N=C2SCCCN12,25

# Target: T1, G-protein coupled receptor 55
# Assay: Antagonist activity against human GPR55 expressed in CHO cells assessed as reduction in LPI-induced beta-arrestin recruitment by beta-galactosidase enzyme fragment complementation method
# Assay type: cell-based
# Conditions: not given
row,Compound,IC50 [µM]
1,O=C1/C(=C/c2ccc(Br)cc2)N=C2SCCCN12,> 10
2,O=C1N=C2SCCCN2C1(c1ccccc1)c1ccccc1,> 10
3,COc1ccc(/C=C2\N=C3SCCCN3C2=O)c(OC)c1,9.77
4,O=C1/C(=C/c2cccc([N+](=O)[O-])c2)N=C2SCCCN12,> 10
5,O=C1/C(=C/c2ccccc2)N=C2SCCCN12,> 10

# Target: T2, N-arachidonyl glycine receptor (Homo sapiens)
# Assay: Antagonist activity against human GPR18 expressed in CHO cells assessed as reduction in delta9-THC-induced beta-arrestin recruitment at 10 uM by beta-galactosidase enzyme fragment complementation method
# Assay type: cell-based
# Conditions: not given
row,Compound,inhibition [%]
1,O=C1/C(=C/c2ccc(Br)cc2)N=C2SCCCN12,13
2,O=C1N=C2SCCCN2C1(c1ccccc1)c1ccccc1,0
3,COc1ccc(/C=C2\N=C3SCCCN3C2=O)c(OC)c1,7
4,O=C1/C(=C/c2cccc([N+](=O)[O-])c2)N=C2SCCCN12,6
5,O=C1/C(=C/c2ccccc2)N=C2SCCCN12,5

# Target: T6, N-arachidonyl glycine receptor (Homo sapiens, UniProt Q14330)
# T6 sequence (Q14330 whole entry): T2 sequence (whole entry)
# Assay: Antagonist activity against human GPR18 expressed in CHO cells assessed as reduction in delta9-THC-induced beta-arrestin recruitment by beta-galactosidase enzyme fragment complementation method
# Assay type: cell-based
# Conditions: not given
row,Compound,IC50 [µM]
1,O=C1/C(=C/c2ccc(Br)cc2)N=C2SCCCN12,> 10
2,O=C1N=C2SCCCN2C1(c1ccccc1)c1ccccc1,> 10
3,COc1ccc(/C=C2\N=C3SCCCN3C2=O)c(OC)c1,> 10
4,O=C1/C(=C/c2cccc([N+](=O)[O-])c2)N=C2SCCCN12,> 10
5,O=C1/C(=C/c2ccccc2)N=C2SCCCN12,> 10

# From ChEMBL document CHEMBL3217528, “Bicyclic imidazole-4-one derivatives: a new class of antagonists for the orphan G protein-coupled receptors GPR18 and GPR55” (Medchemcomm, 2014)
